Assays:
[1] = Safety and tolerability of the oral rinse; type: in vivo, human; conditions: for safe administration: 200 mg WR-2721 (10 ml 0.09 M) or 125 mg WR-1065 (10 ml 0.09 M)
Experimental: The amifostine is administered to the patient in the formulation described above (Table 2). Specifically, 125 mg of amifostine is provided as an oral rinse. The patient rinses for approximately one minute and thereafter, expels/discards the rinse. The rinse process can be repeated.
In this study, WR-1065 is detected in washed, isolated, vital mouth mucosa cells at a concentration of about 3.7-19.9 ng/10^5 cells.

[2] = intravenous administration; cited from earlier work
[3] = system: epirubicin-induced oral mucositis; conditions: cited from earlier work
[4] = cited from earlier work
[5] = after amifostine injection; cited from earlier work

| Compound | safe administration [1] | clearance from the plasma [2] | difference between patients given amifostine oral rinse and control [3] | pH of the maximal rate of hydrolysis ([4]; hydrolysis of P-S bond to WR-1065) | stability at the gastric pH ([4]; pH from 1 to 3) | systemic side-effects ([1]; oral rinse) | tolerability ([1]; oral rinse) | time of maximum tissue concentrations of WR-1065 [5] |
| --- | --- | --- | --- | --- | --- | --- | --- | --- |
| NCCCNCCSP(=O)(O)O [Amifostine, S-2-(3-aminopropylamino) ethyl dihydrogen phosphorothioate] | can be safely administered | rapidly cleared | no significant difference | 3.0 | unstable | – | – | – |
| NCCCNCCS [WR-1065] | can be safely administered | – | – | – | – | no systemic side-effects | well-tolerated | within five to fifteen minutes |
